Measured values: patent EP3964206A1, “COMPOUNDS FOR THE TREATMENT OF COVID-19” (priority 2020, dated 2022)
Counter-ions that a name gives are not always drawn.

These molecules were tested on SARS-CoV-2 (assay: microbe, parasite or virus in culture). Details: Severe acute respiratory syndrome coronavirus 2, 120 h.
Type: cell-based
For `CCCCOCCOc1ccc(-c2ccc3c(c2)C=C(C(=O)Nc2ccc([S@@+]([O-])Cc4cncn4CCC)cc2)CCCN3CC(C)C)cc1` [Compound 65, (-)-(S)-8-[4-(2-Butoxyethoxy)phenyl]-1-isobutyl-N-[4-(1-propyl-1H-imidazol-5-ylmethylsulfinyl)phenyl]-1,2,3,4-tetrahydro-1-benzazocine-5-carboxamide], the IC50 was 55 µM.
Work on `O=C(C1CC1)N1CC[C@@H](Cc2n[nH]c(=O)n2-c2ccc(-c3ccc4ccoc4c3)cc2)C1` [Compound 67, 4-[4-(1-Benzofuran-6-yl)phenyl]-5-[1-(cyclopropylcarbonyl)pyrrolidin-3(S)-ylmethyl]-3,4-dihydro-2H-1,2,4-triazol-3-one] yielded an IC50 of 17 µM.
Work on `CC(C)(C)C(=O)C(=Cc1cccc([N+](=O)[O-])c1)n1cncn1` [Compound 76, 4,4-dimethyl-1-(3-nitrophenyl)-2-(1H-1,2,4-triazol-1-yl)-1-penten-3-one] yielded an IC50 of 4.33 µM.
`CCCc1c(-c2ccc(O)cc2)nn(-c2ccc(O)cc2)c1-c1ccc(O)cc1` [Compound 88, 1,3,5-Tris(4-hydroxyphenyl)-4-propyl-1H-pyrazole] gave an IC50 of 8.3 µM.
Work on `CN(C)CCC=C1c2ccccc2C=Cc2ccccc21` [Compound 90, 3-(5H-Dibenzo[a,d]cyclohepten-5-ylidene)-N,N-dimethylpropan-1-amine hydrochloride] yielded an IC50 of 12.1 µM.
`CCC(=C(c1ccc(O)cc1)c1ccc(OCCNC)cc1)c1ccccc1` [Compound 91, 4-[1-[4-[2-(Methylamino)ethoxy]phenyl]-2-phenyl-1-butenyl]phenol hydrochloride] was tested, and the IC50 was 6.34 µM.
`Cc1ccc(NC(=O)Nc2cc(C(F)(F)F)ccc2F)cc1Nc1ccc2c(c1)NC(=O)C2=Cc1ccc[nH]1` [Compound 92, 1-[2-Fluoro-5-(trifluoromethyl)phenyl]-3-[4-methyl-3-[2-oxo-3-(1H-pyrrol-2-ylmethylene)-2,3-dihydro-1H-indol-6-ylamino]phenyl]urea] gave an IC50 of 5.23 µM.

Same assay, conditions: Severe acute respiratory syndrome coronavirus 2, 120 h, read-out: Maximum confluence reached (%)
`Nc1nc(=S)c2ncn([C@@H]3O[C@H](CO)[C@@H](O)[C@H]3O)c2[nH]1` [Compound 55, 2-amino-9-[(2R,3R,4S,5R)-3,4-dihydroxy-5-(hydroxymethyl)oxolan-2-yl]-3H-purine-6-thione] was tested, and the Emax was 51.5%.
For `O=C(NCCN1CCC2(CC1)C(=O)NCN2c1cccc(F)c1)c1ccc2ccccc2c1` [Compound 56, N-[2-[1-(3-Fluorophenyl)-4-oxo-1,3,8-triazaspiro[4.5]dec-8-yl]ethyl]naphthalen-2-carboxamide], the Emax was 98.5%.
With `Cc1cc(O[C@@H](CCC(F)(F)F)c2ccc(C(=O)NCCC(=O)O)cc2)cc(C)c1-c1ccc(C(C)(C)C)cc1` [Compound 57, N-(4-[(1S)-1-[(4'-tert-Butyl-2,6-dimethylbiphenyl-4-yl)oxy]-4,4,4-trifluorobutyl]benzoyl)-beta-alanine] the Emax was 39.5%.
For `C[C@@H]1C[C@@H]([C@H](O)CC2CC(=O)NC(=O)C2)C(=O)[C@@H](C)C1` [Compound 58, 4-[2(R)-[(1S,3S,5S)-3,5-Dimethyl-2-oxocyclohexyl]-2-hydroxyethyl]piperidine-2,6-dione], the Emax was 63.7%.
Molecule `COc1cc2c(NC3CCN(C4CCCCC4)CC3)nc(N3CCCN(C(C)C)CC3)nc2cc1OCCCN1CCCCC1` [Compound 59, N-(1-Cyclohexylpiperidin-4-yl)-6-methoxy-7-[3-(1-piperidinyl)propoxy]-2-[4-(propan-2-yl)perhydro-1,4-diazepin-1-yl]quinazolin-4-amine] has an Emax of 80.1%.
Molecule `CC(C)(O)CNc1ncc(-c2ccnc(Nc3ccnc(Cl)c3)n2)c(CC2CC2)n1` [Compound 60, 1-[[2-[(2-chloro-4-pyridinyl)amino]-4'-(cyclopropylmethyl)[4,5'-bipyrimidin]-2'-yl]amino]-2-methyl-2-propanol] has an Emax of 45.6%.
Work on `COc1ccccc1[C@H](Cn1c(=O)n(C(C)(C)C(=O)O)c(=O)c2c(C)c(-c3ncco3)sc21)OC1CCOCC1` [Compound 61, 2-[1-[(2R)-2-(2-Methoxyphenyl)-2-(tetrahydro-2H-pyran-4-yloxy)ethyl]-5-methyl-6-(1,3-oxazol-2-yl)-2,4-dioxo-1,4-dihydrothieno[2,3-d]pyrimidin-3(2H)-yl]-2-methylpropanoic acid] yielded an Emax of 78.2%.
`Cc1ccc(C(=O)Nc2cccc(C(F)(F)F)c2)cc1Nc1nc(-c2cccnc2)nc2c1cnn2C` [Compound 62, 4-methyl-3-{[1-methyl-6-(3-pyridinyl)-1H-pyrazolo[3,4-d]pyrimidin-4-yl]amino}-N-[3-(trifluoromethyl)phenyl]benzamide] showed an Emax of 88.4%.
`Cn1nc(C(C)(C)C)cc1C(=O)N[C@@H](Cc1cccc(Cl)c1)C(=O)NCC#N` [Compound 63, 3-tert-butyl-N-{(1S)-1-(3-chlorobenzyl)-2-[(cyanomethyl)amino]-2-oxoethyl}-1-methyl-1H-pyrazole-5-carboxamide] showed an Emax of 96.2%.
Molecule `N#Cc1cccc(C#N)c1-c1nc2c3ccc(Cl)cc3c3ccccc3c2[nH]1` [Compound 64, 2-(6-Chloro-1H-phenanthro[9,10-d]imidazol-2-yl)benzene-1,3-dicarbonitrile] has an Emax of 98.5%.
For `CCCCOCCOc1ccc(-c2ccc3c(c2)C=C(C(=O)Nc2ccc([S@@+]([O-])Cc4cncn4CCC)cc2)CCCN3CC(C)C)cc1` [Compound 65, (-)-(S)-8-[4-(2-Butoxyethoxy)phenyl]-1-isobutyl-N-[4-(1-propyl-1H-imidazol-5-ylmethylsulfinyl)phenyl]-1,2,3,4-tetrahydro-1-benzazocine-5-carboxamide], the Emax was 70.9%.
With `CC(C)(C)c1cc(C=C(C#N)C#N)cc(C(C)(C)C)c1O` [Compound 66, (3,5-Di-tert-butyl-4-hydroxybenzylidene)malononitrile] the Emax was 47.6%.
Work on `O=C(C1CC1)N1CC[C@@H](Cc2n[nH]c(=O)n2-c2ccc(-c3ccc4ccoc4c3)cc2)C1` [Compound 67, 4-[4-(1-Benzofuran-6-yl)phenyl]-5-[1-(cyclopropylcarbonyl)pyrrolidin-3(S)-ylmethyl]-3,4-dihydro-2H-1,2,4-triazol-3-one] yielded an Emax of 31.1%.
With `COc1cc2ncnc(Nc3cccc(Br)c3)c2cc1OC` [Compound 68, 4-(3-Bromophenylamino)-6,7-dimethoxyquinazoline] the Emax was 54.5%.
With `O=c1cc(N2CCOCC2)oc2c(-c3cccc4c3sc3ccccc34)cccc12` [Compound 69, 8-(Dibenzo[b,d]thien-4-yl)-2-(4-morpholinyl)-4H-1-benzopyran-4-one] the Emax was 90.5%.
`Cn1c(Nc2ccc(C(F)(F)F)cc2)nc2cc(Oc3ccnc(-c4nc(C(F)(F)F)c[nH]4)c3)ccc21` [Compound 70, 1-Methyl-N-[4-(trifluoromethyl)phenyl]-5-[2-[4-(trifluoromethyl)-1H-imidazol-2-yl]pyridin-4-yloxy]-1H-benzimidazol-2-amine] gave an Emax of 44.1%.
`O=C(O)Cc1cccc(OCCCN(Cc2cccc(C(F)(F)F)c2Cl)CC(c2ccccc2)c2ccccc2)c1` [Compound 71, 2-[3-[3-[N-[2-Chloro-3-(trifluoromethyl)benzyl]-N-(2,2-diphenylethyl)amino]propoxy]phenyl]acetic acid] showed an Emax of 38%.
Molecule `O=C(Nc1ccc(Cl)c(Cl)c1)Nc1ccc(Cl)c(Cl)c1` [Compound 72, 1,3-Bis(3,4-dichlorophenyl)urea] has an Emax of 45.9%.
In the case of `O=[N+]([O-])c1ccc(N/N=C/c2sc(N3CCOCC3)nc2-c2ccccc2)c(S(=O)(=O)Nc2ccccc2Cl)c1` [Compound 73, N-(2-chlorophenyl)-2-[(2E)-2-[(2-morpholin-4-yl-4-phenyl-1,3-thiazol-5-yl)methylidene]hydrazinyl]-5-nitrobenzenesulfonamide], the Emax is reported as 53.9%.
`Nc1ncnc2c1ncn2[C@@H]1CC[C@@H](O)[C@H]1O` [Compound 74, (1R,2S,3R)-9-(2,3-Dihydroxycyclopentyl)adenine] gave an Emax of 38%.
`CC(C)(C)C(=O)C(=Cc1cccc([N+](=O)[O-])c1)n1cncn1` [Compound 76, 4,4-dimethyl-1-(3-nitrophenyl)-2-(1H-1,2,4-triazol-1-yl)-1-penten-3-one] gave an Emax of 50.4%.
`OCCNC1CCCc2c1[nH]c1ccc(-c3ccccc3)cc21` (stereo not shown) [Compound 77, 2-[(6-Phenyl-2,3,4,9-tetrahydro-1H-carbazol-1-yl)amino]ethanol] gave an Emax of 50.8%.
In the case of `CC(C)COCC(CN(Cc1ccccc1)c1ccccc1)N1CCCC1` (stereo not shown) [Compound 78, 1-[1-(N-Benzylanilino)-3-isobutoxy-2-propyl]pyrrolidine monohydrochloride monohydrate], the Emax is reported as 30.4%.
Work on `COc1ccc2cc1Oc1ccc(cc1)C[C@H]1c3cc(c(OC)cc3CCN1C)Oc1c(OC)c(OC)cc3c1[C@H](C2)N(C)CC3` [Compound 79, (1beta)-(S,S)-6,6',7,12-Tetramethoxy-2,2'-dimethylberbaman] yielded an Emax of 99.6%.
`CCN(CC)CCO[C@H]1CC[C@@]2(C)C(=CC[C@@H]3[C@@H]2CC[C@]2(C)C(=O)CC[C@@H]32)C1` [Compound 80, 3beta-[2-(Diethylamino)ethoxy]androst-5-en-17-one hydrochloride] was tested, and the Emax was 44.7%.
For `O=C(c1c2ccccc2cc2ccccc12)N1CCC(N2CCC[C@@H](C(=O)N3CCOCC3)C2)CC1` [Compound 81, 1-[1'-(Anthracen-9-ylcarbonyl)-1,4'-bipiperidin-3(R)-yl]-1-(4-morpholinyl)methanone], the Emax was 51%.
Work on `CCN(CC)CCOc1ccc(C(=C(Cl)c2ccccc2)c2ccccc2)cc1` [Compound 82, 2-[4-(2-Chloro-1,2-diphenylvinyl)phenoxy]-N,N-diethylethanamine citrate] yielded an Emax of 54.7%.
With `Cn1cc(-c2ccncc2)c(-c2ccc(OCc3ccc4ccccc4n3)cc2)n1` [Compound 83, 2-[4-[1-Methyl-4-(4-pyridyl)-1H-pyrazol-3-yl]phenoxymethyl]quinoline succinate] the Emax was 36.7%.
For `CCN(CC)CCOc1ccc2c(c1)C(=O)c1cc(OCCN(CC)CC)ccc1-2` [Compound 84, 2,7-Bis[2-(diethylamino)ethoxy]-9H-fluoren-9-one], the Emax was 68.9%.
For `Cc1cccc(Nc2nc(-c3ccncc3)cs2)c1` [Compound 85, N-(3-Methylphenyl)-4-(4-pyridyl)thiazol-2-amine], the Emax was 47.8%.
Work on `O=S(=O)(NCC1CC1)c1ccc(Nc2nccc(N3CCCc4cc(O)ccc43)n2)cc1` [Compound 86, N-(Cyclopropylmethyl)-4-[[4-(3,4-dihydro-6-hydroxy-1(2H)-quinolinyl)-2-pyrimidinyl]amino]benzenesulfonamide] yielded an Emax of 55%.
For `CC(C)N1CCN(c2ccc(C(=O)c3c(-c4ccc(O)cc4)sc4cc(O)ccc34)cc2)CC1` [Compound 87, 1-[6-Hydroxy-2-(4-hydroxyphenyl)-1-benzothien-3-yl]-1-[4-(4-isopropylpiperazin-1-yl)phenyl]methanone], the Emax was 41%.
`CCCc1c(-c2ccc(O)cc2)nn(-c2ccc(O)cc2)c1-c1ccc(O)cc1` [Compound 88, 1,3,5-Tris(4-hydroxyphenyl)-4-propyl-1H-pyrazole] gave an Emax of 48.2%.
`CN(C)CCC=C1c2ccccc2C=Cc2ccccc21` [Compound 90, 3-(5H-Dibenzo[a,d]cyclohepten-5-ylidene)-N,N-dimethylpropan-1-amine hydrochloride] gave an Emax of 70.2%.
For `CCC(=C(c1ccc(O)cc1)c1ccc(OCCNC)cc1)c1ccccc1` [Compound 91, 4-[1-[4-[2-(Methylamino)ethoxy]phenyl]-2-phenyl-1-butenyl]phenol hydrochloride], the Emax was 35.7%.
In the case of `Cc1ccc(NC(=O)Nc2cc(C(F)(F)F)ccc2F)cc1Nc1ccc2c(c1)NC(=O)C2=Cc1ccc[nH]1` [Compound 92, 1-[2-Fluoro-5-(trifluoromethyl)phenyl]-3-[4-methyl-3-[2-oxo-3-(1H-pyrrol-2-ylmethylene)-2,3-dihydro-1H-indol-6-ylamino]phenyl]urea], the Emax is reported as 75.5%.
